≈ marks a conversion by molar mass, not a printed value. Like-named read-outs stand apart in the source and are kept apart here. Where a SMILES comes first, the peptide text is derived from it.

In test [1] the test system is E. coli BW25113 ΔmdtM. It counts as cell-based, Escherichia coli. The note with it: Mueller–Hinton broth, 24 h, 37 °C, median. The procedure:
(§1) The reduction of resazurin to resorufin was measured.

Test [2] has as its system E. coli BW25113 ΔompF. Type of test: cell-based, Escherichia coli. Conditions: Mueller–Hinton broth, 24 h, 37 °C, median. The protocol:
as §1

Test [3] concerns E. coli BW25113 ΔsbmA. It counts as cell-based, Escherichia coli. The note with it: for Minimum inhibitory concentration, E. coli strain ΔsbmA: Mueller–Hinton broth, 24 h, 37 °C, median. The procedure:
as §1

The test system of test [4] is E. coli BW25113. Type of test: cell-based, Escherichia coli. The note with it: BW25113, 24 h. The protocol:
as §1

For test [5], the system named is E. coli MDR CI 1057. The protocol:
(§2) Bacterial test cultures were grown in the Mueller-Hinton broth (MH; Sigma, St. Louis, MO, USA) at 37 °C to mid-log phase and then diluted with the 2× MH medium supplemented with 1.8% NaCl or without salt so that to reach a final cell concentration of 10^6 CFU/mL. 50 µL of the obtained bacterial suspension were added to aliquots of 50 µL of the peptide solutions serially diluted with sterilized 0.1% bovine serum albumin (BSA) in 96-well flat-bottom polystyrene microplates (Eppendorf #0030730011, Hamburg, Germany). […] To verify MIC values, the respiratory activity of the bacteria was determined. Briefly, 20 µL of 0.1 mg/mL resazurin (a redox indicator; Sigma, St. Louis, MO, USA) was added to the wells after 24 h of incubation, and the plate was incubated for an additional two hours. The reduction of resazurin to resorufin was measured. […] The results were expressed as the median values determined based on at least three independent experiments performed in triplicate.
(§3) Resistance induction experiments were performed using the previously described method. Briefly, on day one, the overnight culture of wild-type bacteria was diluted with the 2× MH broth supplemented with 1.8% NaCl to reach a final cell concentration of 10^6 CFU/mL. 50 µL of the obtained bacterial suspension were added to aliquots of 50 µL of the peptide solutions serially diluted with the sterilized 0.1% BSA in 96-well flat-bottom polystyrene microplates. After incubation for 20 ± 2 h at 37 °C and 950 rpm, MICs were determined as described above. For each subsequent daily transfer, 2–4 μL of the inoculum taken from the first well containing a sub-inhibitory drug concentration were diluted with 2 mL of the fresh 2× MH broth supplemented with 1.8% NaCl. […] 14 repeated passages in the presence of antimicrobial agents were made for each bacterial strain during the experiment. Bacteria that grew at the highest concentration of AMPs on the final day were passaged a further 3 times on drug-free agar plates before determining the final MIC value.

The test system of test [6] is VicBac[1–22]-resistant E. coli MDR 1057 strain. Conditions: Mueller-Hinton broth supplemented with 0.9% NaCl; strain selected 14 days with VicBac[1-22]; cross-resistance. The protocol: as §2, §3
Test [7] relates to E. coli CI 214. Nature of the test: Antimicrobial assay (MIC). Type of test: cell-based, Escherichia coli. Conditions: Mueller-Hinton broth supplemented with 0.9% NaCl. The procedure:
as §1

Test [8] relates to E. coli ML-35p. The experiment in a line: Antimicrobial assay (MIC). Type of test: cell-based, Escherichia coli. Conditions: Mueller-Hinton broth supplemented with 0.9% NaCl. The protocol: as §1
The test system of test [9] is A. baumannii XDR CI 2675. The experiment in a line: Antimicrobial assay (MIC). Type of test: cell-based. The note with it: Mueller-Hinton broth supplemented with 0.9% NaCl. The procedure: as §1
Test [10] has as its system B. licheniformis VKM B511. The experiment in a line: Antimicrobial assay (MIC). Type of test: cell-based. The note with it: Mueller-Hinton broth supplemented with 0.9% NaCl. The procedure:
as §1

The test system of test [11] is E. cloacae XDR CI 4172. The experiment in a line: Antimicrobial assay (MIC). Type of test: cell-based. Conditions: Mueller-Hinton broth supplemented with 0.9% NaCl. The procedure: as §1
Test [12] has as its system K. pneumoniae ATCC 700603. Nature of the test: Antimicrobial assay (MIC). The note with it: Mueller-Hinton broth supplemented with 0.9% NaCl. It counts as cell-based. The procedure: as §1
Test [13] has as its system Mycobacterium phlei Ac-1291. Nature of the test: Antimicrobial assay (MIC). The note with it: Mueller-Hinton broth supplemented with 0.9% NaCl. It counts as cell-based. The procedure:
as §1

The subject of test [14] is P. mirabilis XDR CI 3423. The experiment in a line: Antimicrobial assay (MIC). The note with it: Mueller-Hinton broth supplemented with 0.9% NaCl. Type of test: cell-based. The procedure: as §1
Test [15] deals with human cells. Nature of the test: Cytokine response (multiplex xMAP immunoassay), cell type not given. Type of test: cell-based. The note with it: 2 µM peptide, 24 h, control 1813 pg/mL. The procedure: Acute monocytic leukemia THP-1 line (ATCC TIB-202) was cultured in complete RPMI 1640 medium (Invitrogen, Waltham, MA, USA) containing 10% FBS, 1× antibiotic-antimycotic solution (Invitrogen, Waltham, MA, USA), and 0.05 mM β-mercaptoethanol, in the CO2-incubator (5% CO2, 37 °C). THP-1 cells were differentiated into proinflammatory macrophages (MΦ1) according to the previously reported protocol. Primary peripheral blood mononuclear cells (PBMC) collected from a healthy donor were purchased from American Type Culture Collection (ATCC PCS-800-011), thawed, and seeded into a 96-well plate one day prior to the experiment at a density of 2 × 10^5 cells/well. […] 27 analytes were measured at a protein level by multiplex xMAP technology using the MILLIPLEX MAP Human Cytokine/Chemokine Magnetic Bead Immunology Panel kit (HCYTOMAG-60K-27, Merck, Darmstadt, Germany): eotaxin-1/CCL11, TGFα, GM-CSF, IFNα2, IFNγ, IL-10, IL-12p40, IL-12p70, IL-13, IL-15, sCD40L, IL-17A, IL-1RA, IL-1α, IL-9, IL-1β, IL-2, IL-3, IL-4, IL-5, IL-6, IL-7, IL-8/CXCL8, IP-10/CXCL10, RANTES/CCL5, TNFα, TNFβ. Multiplex-based assay read-out was performed using the MAGPIX system (Merck) with the xPONENT 4.2 software (Merck, Darmstadt, Germany) in accordance with the manufacturer’s instruction with overnight incubation of the samples with primary antibodies. […]

Take `CC[C@H](C)[C@H](NC(=O)[C@H](CCCNC(=N)N)NC(=O)[C@@H](N)CCCNC(=N)N)C(=O)N[C@@H](CCCNC(=N)N)C(=O)N[C@@H](CCCNC(=N)N)C(=O)N1CCC[C@H]1C(=O)N[C@@H](CCCNC(=N)N)C(=O)N[C@@H](CC(C)C)C(=O)N1CCC[C@H]1C(=O)N[C@@H](CCCNC(=N)N)C(=O)N1CCC[C@H]1C(=O)N[C@@H](CCCNC(=N)N)C(=O)N[C@H](C(=O)N1CCC[C@H]1C(=O)N[C@@H](CCCNC(=N)N)C(=O)N1CCC[C@H]1C(=O)N[C@@H](CCCNC(=N)N)C(=O)N[C@H](C(=O)N1CCC[C@H]1C(=O)N1CCC[C@H]1C(=O)N[C@@H](CCCNC(=N)N)C(=O)N[C@H](C(=O)N1CCC[C@H]1C(=O)N[C@@H](CCCNC(=N)N)C(=O)N1CCC[C@H]1C(=O)N[C@H](C(=O)N[C@@H](CC(C)C)C(=O)N1CCC[C@H]1C(=O)N1CCC[C@H]1C(=O)N1CCC[C@H]1C(=O)N[C@@H](CCCNC(=N)N)C(=O)N[C@H](C(=O)N1CCC[C@H]1C(=O)N[C@@H](Cc1ccccc1)C(=O)N1CCC[C@H]1C(=O)N[C@@H](CCCNC(=N)N)C(=O)N[C@@H](Cc1ccccc1)C(=O)N1CCC[C@H]1C(=O)N[C@@H](CCCNC(=N)N)C(N)=O)C(C)C)C(C)C)[C@@H](C)CC)[C@@H](C)CC)C(C)C` [VicBac[1-39]] (H-RRIRRPRLPRPRVPRPRIPPRIPRPVLPPPRVPFPRFPR-NH2; N-terminus assumed): the figures for the “Minimum inhibitory concentration, E. coli strain ΔmdtM” value in test [1] (0.9% NaCl: +) and in test [1] (0.9% NaCl: −) were 1 µM (≈ 4.82 µg/mL) and 2 µM (≈ 9.64 µg/mL), respectively. Further, the “Minimum inhibitory concentration, E. coli strain ΔompF” value in test [2] (0.9% NaCl: +) and in test [2] (0.9% NaCl: −) was 1 µM (≈ 4.82 µg/mL) in each case. The “increase in MIC against ΔsbmA strain versus BW25113” value in test [3] (Mueller–Hinton broth with 0.9% NaCl) is reported as 2 fold. The “Minimum inhibitory concentration, E. coli strain ΔsbmA” value in [3] (0.9% NaCl: +) and in test [3] (0.9% NaCl: −) was 2 µM (≈ 9.64 µg/mL) in each case. Further, in test [4], the “Minimum inhibitory concentration, E. coli strain BW25113” value was 1 µM (≈ 4.82 µg/mL). In addition, in test [5] (Mueller-Hinton broth supplemented with 0.9% NaCl (Figure 3A)), the “MIC, E. coli MDR CI 1057” value was found to be 1 µM (≈ 4.82 µg/mL). The “Minimum inhibitory concentration E.coli MDR 1057 14 days w/o AMP” value in test [5] (Mueller-Hinton broth supplemented with 0.9% NaCl, after 14 passages without antimicrobial agents) is 1 µM (≈ 4.82 µg/mL). In test [5] (Mueller-Hinton broth supplemented with 0.9% NaCl, before passages), the “Minimum inhibitory concentration E.coli MDR 1057 0 days” value worked out at 1 µM (≈ 4.82 µg/mL). Also, the “Minimum inhibitory concentration E.coli MDR 1057 14 days with VicBac [1-22]” value in test [6] was determined as 2 µM. Also, the “MIC, E. coli CI 214” value in [7] is listed as 8 µM (≈ 38.5 µg/mL). For the same molecule, the “MIC, E. coli ML-35p” value in test [8] came to 0.5 µM (≈ 2.41 µg/mL). In addition, the “MIC, A. baumannii XDR CI 2675” value in [9] was 8 µM (≈ 38.5 µg/mL). Further, in test [10], the “MIC, B. licheniformis VKM B511” value is reported as 1 µM (≈ 4.82 µg/mL). The “MIC, E. cloacae XDR CI 4172” value in test [11] is 4 µM (≈ 19.3 µg/mL). The “MIC, K. pneumoniae ATCC 700603” value in [12] came to 2 µM (≈ 9.64 µg/mL). The “MIC, Mycobacterium phlei Ac-1291” value in test [13] stood at 0.5 µM (≈ 2.41 µg/mL). Also, in [14], the “MIC, P. mirabilis XDR CI 3423” value came to 8 µM (≈ 38.5 µg/mL). Further, the “Production of IL-8/CXCL8” value in [15] stood at 1034 pg/mL.

Values taken from PMC9146984, “A Novel Proline-Rich Cathelicidin from the Alpaca Vicugna pacos with Potency to Combat Antibiotic-Resistant Bacteria: Mechanism of Action and the Functional Role of the C-Terminal Region” (Membranes, 2022).
